According to patent US20180344680A1, “COMPOSITIONS AND METHODS FOR TREATMENT, AMELIORATION, AND PREVENTION OF DIABETES-RELATED SKIN ULCERS” (THE ARIZONA BOARD OF REGENTS ON BEHALF OF THE UNIVERSITY OF …, priority 2015, published 2018):

Tests used:
[1] = tested on: HaCaT cells; test: In vitro wounding assay (PDMS barrier) of keratinocyte migration; format: cell-based, human; conditions: HG HaCaT cells; 5 μmol/L SF or 20 μmol/L CA; up to 72 h
Protocol: (§1) Human immortalized keratinocytes HaCaT were obtained from the Arizona Cancer Center (see, e.g., Boukamp P, et al., J Cell Biol 106:761-771, 1988). Cells were grown in Dulbecco's modified Eagle's medium (DMEM) containing low glucose (LG, 5.5 mmol/L) and 10% fetal bovine serum (FBS) in an incubator at 37° C. with 5% CO2. For the experiments, the cells were starved in serum-free LG DMEM for 24 h, then either maintained in LG DMEM or switched to high glucose (HG, 25 mmol/L) DMEM for 2 days (see, e.g., Zheng H, et al., Diabetes 60:3055-3066, 2011; Lan C C, et al., Br J Dermatol 159:1103-1115, 2008). For the treatments, the cells were dosed with 5 μmol/L SF or 20 μmol/L CA.
siRNA transfections. HaCaT cells were transfected with either a non-specific, control small interfering RNA (Con-siRNA, #1027281, Qiagen, Valencia, Calif.) or an NRF2-specific siRNA (#S100657937) using the HiPerfect transfection reagent (Qiagen) according to the manufacturer's instructions. Briefly, cells were maintained in LG or HG DMEM for 2 days and then transfected with either control or NRF2 siRNA for migration, proliferation, and apoptosis experiments. For the ROS detection, cells were maintained in LG DMEM and transfected with either control or NRF2 siRNA; 24 h later, the cells were switched to HG DMEM and treated as indicated.
In vitro wounding assay. […]

[2] = tested on: Ki67; test: Ki67 immunofluorescence in HaCaT cells; format: cell-based, human; conditions: HG HaCaT cells; 5 μmol/L SF or 20 μmol/L CA
Protocol: as §1
siRNA transfections. […]
Reactive oxygen species (ROS) measurement, cell proliferation and apoptosis. ROS were measured in HaCaT cells using DCF. […] Then, 48 h later, the cells were switched into fresh medium containing 10 μg/mL DCF, incubated 30 min, and fluorescence intensity was measured by flow cytometry. The rate of cell proliferation was measured by two methods (see, e.g., Ren D, et al., Proc Natl Acad Sci USA 108:1433-1438, 2011): 1) detection of Ki67 using indirect immunofluorescence as described previously (see, e.g., Lau A, et al., Mol Cell Biol 30:3275-3285, 2010); and 2) using the xCELLigence system (Roche). […]

[3] = Digital infrared thermal imaging of wounds in STZ mice; format: in vivo, mouse; conditions: exaggerated gradient vs Con group
Protocol: Diabetes mouse model and treatments. […] Briefly, three weeks after STZ injections, fasting glucose levels (FGL, 4 h fast) were measured using the AlphaTRAK system (Abbott Laboratory, North Chicago, Ill.) and mice with a FGL higher than or equal to 250 mg/dL were considered diabetic and included in the study (see, e.g., FIG. 2A and FIG. 3A for a detailed timeline). The mice (n=5-8) were then allocated randomly to each of the indicated treatment groups and received corn oil (control), 12.5 mg/kg SF or 50 mg/kg CA intraperitoneally every two days until skin tissues were harvested. One week after the treatments, the mice were anesthetized, their backs were shaved and cleaned. Two wounds were made with a sterile 6 mm skin biopsy punch (Health link, Jacksonville, Fla.) and covered with 3M Tegaderm pads. The wounds were photographed using an in vivo imaging system and an infrared integrated system (IRISYS, Northampton, UK) for 14 days. Gross wound closure was quantified by ImageJ software, and wound healing was expressed as the percentage of the original wound area that had healed. The tissues were collected using an 8 mm skin biopsy punch; one half was fixed in 10% buffered formalin and embedded in paraffin while the other half was used for protein extraction. […]

[4] = tested on: HaCaT cells; test: ROS measurement (DCF/flow cytometry) in HaCaT cells; format: cell-based, human; conditions: HG HaCaT cells; 5 μmol/L SF or 20 μmol/L CA every 24 h, 48 h
Protocol: Human immortalized keratinocytes HaCaT were obtained from the Arizona Cancer Center (see, […], et al., J Cell Biol 106:761-771, 1988). Cells were grown in Dulbecco's modified Eagle's medium (DMEM) containing low glucose (LG, 5.5 mmol/L) and 10% fetal bovine serum (FBS) in an incubator at 37° C. with 5% CO2. For the experiments, the cells were starved in serum-free LG DMEM for 24 h, then either maintained in LG DMEM or switched to high glucose (HG, 25 mmol/L) DMEM for 2 days (see, e.g., Zheng H, et al., Diabetes 60:3055-3066, 2011; Lan C C, et al., Br J Dermatol 159:1103-1115, 2008). For the treatments, the cells were dosed with 5 μmol/L SF or 20 μmol/L CA. siRNA transfections. […] ROS were measured in HaCaT cells using DCF. […] Then, 48 h later, the cells were switched into fresh medium containing 10 μg/mL DCF, incubated 30 min, and fluorescence intensity was measured by flow cytometry. The rate of cell proliferation was measured by two methods (see, […], et al., Proc Natl Acad Sci USA 108:1433-1438, 2011): 1) detection of Ki67 using indirect immunofluorescence as described previously (see, e.g., Lau A, et al., Mol Cell Biol 30:3275-3285, 2010); and 2) using the xCELLigence system (Roche). For this, 8000 HaCaT cells/well were seeded in LG or HG media, with or without an NRF2 activator, and cell growth was monitored for 72 h. […]

| Compound | in vitro wound closure (cell migration) [1] | Ki67 expression [2] | temperature gradients (ΔT) between wound area and surrounding healthy tissue [3] | ROS levels [4] |
| --- | --- | --- | --- | --- |
| O=CC=Cc1ccccc1 [CA, Cinnamaldehyde] | significantly accelerated wound closure in HG cells | could restore some of the Ki67 expression | abolished this effect | reduced ROS levels significantly |
| C[S@@+]([O-])CCCCN=C=S [SF, L-sulforaphane] | significantly accelerated wound closure in HG cells | could restore some of the Ki67 expression | abolished this effect | reduced ROS levels significantly |
